Values of other authors as cited in patent US5994374A, “Substituted 1-indolylpropyl-4-benzyl-tetrahydropyridine derivatives” (Merck Sharp & Dohme Ltd., priority 1995, dated 1999).

Test system: human 5-HT1Dα and 5-HT1Dβ receptor subtypes
Conditions: cf. WO-A-91/17174, Table 1

## CNS(=O)(=O)Cc1ccc2[nH]cc(CCN(C)C)c2c1 [sumatriptan]
  discrimination between the human 5-HT1Dα and 5-HT1Dβ receptor subtypes: barely discriminates
